Laboratory results: PMC3177990 (Biochemistry, 2011)

Molecular target: human secretin receptor (Homo sapiens, UniProt P47872)
Assay: cAMP responses in CHO-SecR cells
Type: cell-based
Conditions: Figure 4, responses not significantly different from 1

Chain of human secretin receptor (P47872 23-440): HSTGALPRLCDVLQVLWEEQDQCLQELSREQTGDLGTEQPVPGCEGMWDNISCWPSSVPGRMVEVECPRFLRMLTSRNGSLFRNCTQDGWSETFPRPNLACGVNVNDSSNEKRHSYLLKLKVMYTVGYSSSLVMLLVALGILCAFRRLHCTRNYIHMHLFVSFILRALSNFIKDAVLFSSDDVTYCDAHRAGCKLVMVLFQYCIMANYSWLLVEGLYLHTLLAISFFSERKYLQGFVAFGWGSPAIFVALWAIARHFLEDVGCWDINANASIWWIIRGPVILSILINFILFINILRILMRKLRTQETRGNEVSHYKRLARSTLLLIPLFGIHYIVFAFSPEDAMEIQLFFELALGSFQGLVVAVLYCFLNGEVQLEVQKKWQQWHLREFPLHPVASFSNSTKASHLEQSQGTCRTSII

| Substance | agonist character, cAMP responses compared with [Y^10]sec(1-27) (1) |
| --- | --- |
| cyclic [Glu^16,Lys^20][Tyr^10]human secretin(1-27) [compound 14] | full agonists |
| cyclic [Glu^16,Lys^20]human secretin(1-27) [compound 15] | full agonists |
